Measurements reported in the NIST ThermoML archive (doi:10.1007/s10765-014-1718-x).
± gives the expanded uncertainty stated by the source.

Details: for thermal diffusivity: Optical interferometry; for speed of sound: Light diffraction method

CCCCC [pentane]
Details	speed of sound [m/s]	thermal diffusivity [m2/s]
306.16 K, Liquid	–	7.18e-08 ± 3.7e-09
308.14 K, Liquid	963.73 ± 5	–
318.45 K, Liquid	915.77 ± 4.7	–
323.16 K, Liquid	–	6.84e-08 ± 3.6e-09
328.23 K, Liquid	866.06 ± 4.5	–
338.02 K, Liquid	815.68 ± 4.2	–
338.39 K, Liquid	–	6.42e-08 ± 3.3e-09
348.32 K, Liquid	765.39 ± 4	–
348.68 K, Gas	189.16 ± 1.2	–
353.16 K, Liquid	–	6.19e-08 ± 3.2e-09
358.13 K, Liquid	–	6.07e-08 ± 3.2e-09
358.22 K, Gas	187.01 ± 1.2	–
359.03 K, Liquid	715.2 ± 3.7	–
362.37 K, Liquid	–	5.91e-08 ± 3.1e-09
367.9 K, Gas	185.11 ± 1.2	–
368.18 K, Liquid	–	5.79e-08 ± 3e-09
368.31 K, Liquid	667.88 ± 3.5	–
373.47 K, Liquid	–	5.74e-08 ± 3e-09
377.79 K, Gas	183.06 ± 1.1	–
378.2 K, Liquid	–	5.69e-08 ± 3e-09
379.04 K, Liquid	618.28 ± 3.2	–
383.42 K, Liquid	–	5.53e-08 ± 2.9e-09
388.15 K, Liquid	–	5.45e-08 ± 2.8e-09
388.18 K, Gas	178.8 ± 1.1	–
388.52 K, Liquid	571.45 ± 3	–
393.32 K, Liquid	–	5.4e-08 ± 2.8e-09
396.29 K, Liquid	–	5.35e-08 ± 2.8e-09
398.16 K, Liquid	529.46 ± 2.8	–
398.34 K, Gas	174.99 ± 1.1	–
399.16 K, Liquid	–	5.24e-08 ± 2.7e-09
403.33 K, Liquid	–	5.16e-08 ± 2.7e-09
406.96 K, Liquid	483.6 ± 2.6	–
408.14 K, Gas	169.99 ± 1.1	–
408.63 K, Liquid	–	5.12e-08 ± 2.7e-09
413.33 K, Liquid	–	5.01e-08 ± 2.6e-09
417.94 K, Liquid	428.66 ± 2.3	–
418.17 K, Gas	162.61 ± 1.1	–
418.39 K, Liquid	–	4.93e-08 ± 2.6e-09
423.55 K, Gas	–	2.31e-07 ± 6.9e-09
423.61 K, Liquid	–	4.84e-08 ± 2.5e-09
428.12 K, Gas	–	2.14e-07 ± 6.4e-09
428.17 K, Gas	155.41 ± 1	–
428.17 K, Liquid	–	4.69e-08 ± 2.4e-09
428.38 K, Liquid	382.43 ± 2.1	–
433.15 K, Gas	–	1.92e-07 ± 5.8e-09
433.19 K, Gas	150.86 ± 1	–
433.29 K, Liquid	–	4.58e-08 ± 2.4e-09
436.13 K, Gas	–	1.77e-07 ± 5.3e-09
436.19 K, Liquid	–	4.49e-08 ± 2.3e-09
438.21 K, Gas	146.71 ± 1	–
438.23 K, Liquid	327.33 ± 1.8	–
438.87 K, Gas	–	1.64e-07 ± 4.9e-09
439.21 K, Liquid	–	4.43e-08 ± 2.3e-09
442.09 K, Gas	–	1.49e-07 ± 4.5e-09
442.35 K, Liquid	–	4.38e-08 ± 2.3e-09
443.15 K, Gas	140.85 ± 0.98	–
445.16 K, Liquid	–	4.34e-08 ± 2.3e-09
445.19 K, Gas	–	1.35e-07 ± 4.1e-09
447.95 K, Gas	136.18 ± 0.96	–
448.08 K, Liquid	–	4.2e-08 ± 2.2e-09
448.25 K, Gas	–	1.2e-07 ± 3.6e-09
448.62 K, Liquid	267.2 ± 1.5	–
451.23 K, Gas	–	1.08e-07 ± 3.2e-09
451.38 K, Liquid	–	4.08e-08 ± 2.1e-09
453.26 K, Gas	130.15 ± 0.93	–
454.03 K, Gas	–	9.78e-08 ± 2.9e-09
455.2 K, Liquid	–	3.84e-08 ± 2e-09
457.04 K, Gas	–	8.48e-08 ± 2.5e-09
457.87 K, Liquid	209.66 ± 1.3	–
458.28 K, Gas	123.99 ± 0.91	–
458.4 K, Liquid	–	3.55e-08 ± 1.8e-09
460.05 K, Gas	–	7.23e-08 ± 2.2e-09
460.1 K, Liquid	–	3.37e-08 ± 1.8e-09
462.08 K, Gas	–	5.64e-08 ± 1.7e-09
463.16 K, Gas	116.39 ± 0.88	–
463.27 K, Liquid	170.65 ± 1.1	–
463.41 K, Liquid	–	3.04e-08 ± 1.6e-09
464.04 K, Gas	–	4.16e-08 ± 1.2e-09
466.12 K, Gas	–	3.45e-08 ± 1e-09
466.14 K, Liquid	145.22 ± 1	–
466.37 K, Liquid	–	2.59e-08 ± 1.3e-09
469.33 K, Liquid	111.31 ± 0.89	–
